Test results as given in ChEMBL document CHEMBL3853280, “Unexpected Metabolic Versatility in a Combined Fungal Fomannoxin/Vibralactone Biosynthesis” (2016).
≈ marks a conversion by molar mass, not a printed value.

What was measured:
Type in all cases: functional
Aspergillus fumigatus = experiment: Antifungal activity against Aspergillus fumigatus by broth dilution assay
[1] = Antifungal activity against Penicillium notatum by broth dilution assay; conditions: Penicillium chrysogenum
Trichophyton benhamiae = experiment: Antifungal activity against Arthroderma benhamiae by broth dilution assay

| Structure (SMILES) | MIC (Aspergillus fumigatus) [µg/mL] | MIC [1] [µg/mL] | MIC (Trichophyton benhamiae) [µg/mL] |
| --- | --- | --- | --- |
| CC(=O)OCC1=C[C@@]2(CC=C(C)C)C(=O)O[C@H]2C1 | > 100 | 25 (≈ 99.9 µM) | 50 (≈ 200 µM) |
| CC(C)=C/C=C/C=C1\CCOC1=O | > 100 | 25 (≈ 140 µM) | 12.5 (≈ 70.1 µM) |
| CC(C)=CC[C@@]12C=C(CO)C[C@@H]1OC2=O | > 100 | 25 (≈ 120 µM) | 50 (≈ 240 µM) |
| COC(=O)c1ccc(OC=C(C)C)cc1 | > 100 | 25 (≈ 121 µM) | 100 (≈ 485 µM) |
| C=C(C)COc1ccc(C(=O)OC)cc1C=O | 50 (≈ 213 µM) | 25 (≈ 107 µM) | 6.25 (≈ 26.7 µM) |
| C=C(C)COc1ccc(C(=O)OC)cc1CO | > 100 | 25 (≈ 106 µM) | 25 (≈ 106 µM) |
| CC1=CC=C(CC2CCOC2=O)C(=O)OC1 (centres undefined) | > 100 | 25 (≈ 112 µM) | > 100 |
| COC(=O)c1ccc(OC=C(C)C)c(CO)c1 | 50 (≈ 212 µM) | 25 (≈ 106 µM) | 6.25 (≈ 26.5 µM) |
